Data reported in US20100292231A1, “Indazole Compounds for Treating Inflammatory Disorders, Demyelinating Disorders and Cancers” (priority 2007, published 2010).
Like-named read-outs stand apart in the source and are kept apart here.

Key:
Test in all cases: SelectScreen kinase specificity survey
Assay type in all cases: biochemical
AKT1 (PKB alpha) = molecular target: T1, AKT1 (PKB alpha) (Homo sapiens, UniProt P31749); settings: estimated, abridged dose response curve, read-out: Kinase inhibitory activity EC50
T1 construct: purchased Invitrogen (SelectScreen platform)
In short: (§1)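 Kinases from all classes (230 in total) are treated with a unique substrate and optical read-out system in the presence of 100 micromolar ATP. Uninhibited controls give the baseline phosphorylation signal, and graded compound in 5 steps yields the curve for Hill fitting.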

AMPK A1/B1/G1 = molecular target: T2, AMPK A1/B1/G1 (Homo sapiens, UniProt P54619+Q13131+Q9Y478); settings: estimated, abridged dose response curve, read-out: Kinase inhibitory activity EC50
T2 construct: purchased Invitrogen, Inc. (SelectScreen platform)
In short: as §1

CSNK1G2 (CK1 gamma 2) = molecular target: T3, CSNK1G2 (CK1 gamma 2) (Homo sapiens, UniProt P78368); settings: estimated, abridged dose response curve, read-out: Kinase inhibitory activity EC50
T3 construct: purchased Invitrogen (SelectScreen platform)
In short: as §1

EPHA1 = molecular target: T4, EPHA1 (Homo sapiens, UniProt P21709); settings: estimated, abridged dose response curve, read-out: Kinase inhibitory activity EC50
T4 construct: purchased Invitrogen (SelectScreen service)
In short: as §1

EPHA8 = molecular target: T5, EPHA8 (Homo sapiens, UniProt P29322); settings: estimated, abridged dose response curve, read-out: Kinase inhibitory activity EC50
T5 construct: purchased Invitrogen (SelectScreen service)
In short: as §1

FGFR2 = molecular target: T6, FGFR2 (Homo sapiens, UniProt P21802); settings: estimated, abridged dose response curve, read-out: Kinase inhibitory activity EC50
T6 construct: purchased Invitrogen (SelectScreen platform)
In short: as §1

GRK7 = molecular target: T7, GRK7 (Homo sapiens, UniProt Q8WTQ7)
T7 construct: purchased Invitrogen (SelectScreen platform)
In short: as §1

INSR = molecular target: T8, INSR (Homo sapiens, UniProt P06213); settings: estimated, abridged dose response curve, read-out: Kinase inhibitory activity EC50
T8 construct: purchased Invitrogen (SelectScreen platform)
In short: as §1

JAK1 = molecular target: T9, JAK1 (Homo sapiens, UniProt P23458); settings: estimated, abridged dose response curve, read-out: Kinase inhibitory activity EC50
T9 construct: purchased Invitrogen (SelectScreen platform)
In short: as §1

LYN B = molecular target: T10, LYN B (Homo sapiens, UniProt P07948); settings: estimated, abridged dose response curve, read-out: Kinase inhibitory activity EC50
T10 construct: purchased Invitrogen (SelectScreen)
In short: as §1

MAP2K6 (MKK6) = molecular target: T11, MAP2K6 (MKK6) (Homo sapiens, UniProt P52564); settings: estimated, abridged dose response curve, read-out: Kinase inhibitory activity EC50
T11 construct: purchased Invitrogen (SelectScreen platform)
In short: as §1

MAP3K8 (COT) = molecular target: T12, MAP3K8 (COT) (Homo sapiens, UniProt P41279); settings: estimated, abridged dose response curve, read-out: Kinase inhibitory activity EC50
T12 construct: purchased Invitrogen, Inc. (SelectScreen service)
In short: as §1

MAP4K2 (GCK) = molecular target: T13, MAP4K2 (GCK) (Homo sapiens, UniProt Q12851); settings: estimated, abridged dose response curve, read-out: Kinase inhibitory activity EC50
T13 construct: purchased Invitrogen, Inc. (SelectScreen service)
In short: as §1

MAPK1 (ERK2) = molecular target: T14, MAPK1 (ERK2) (Homo sapiens, UniProt P28482); settings: estimated, abridged dose response curve, read-out: Kinase inhibitory activity EC50
T14 construct: purchased Invitrogen (SelectScreen platform)
In short: as §1

MAPK14 (p38 alpha) = molecular target: T15, MAPK14 (p38 alpha) (Homo sapiens, UniProt Q16539); settings: estimated, abridged dose response curve, read-out: Kinase inhibitory activity EC50
T15 construct: purchased Invitrogen, Inc. (SelectScreen service)

MERTK (cMER) = molecular target: T16, MERTK (cMER) (Homo sapiens, UniProt Q12866); settings: estimated, abridged dose response curve, read-out: Kinase inhibitory activity EC50
T16 construct: purchased Invitrogen (SelectScreen service)
In short: as §1

MST1R (RON) = molecular target: T17, MST1R (RON) (Homo sapiens, UniProt Q04912); settings: estimated, abridged dose response curve, read-out: Kinase inhibitory activity EC50
T17 construct: purchased Invitrogen (SelectScreen platform)
In short: as §1

NEK6 = molecular target: T18, NEK6 (Homo sapiens, UniProt Q9HC98); settings: estimated, abridged dose response curve, read-out: Kinase inhibitory activity EC50
T18 construct: purchased Invitrogen, Inc. (SelectScreen service)
In short: as §1

NTRK2 (TRKB) = molecular target: T19, NTRK2 (TRKB) (Homo sapiens, UniProt Q16620)
T19 construct: purchased Invitrogen (SelectScreen)
In short: as §1

PDGFRA (PDGFR alpha) = molecular target: T20, PDGFRA (PDGFR alpha) (Homo sapiens, UniProt P16234); settings: estimated, abridged dose response curve, read-out: Kinase inhibitory activity EC50
T20 construct: purchased Invitrogen (SelectScreen platform)
In short: as §1

PLK2 = molecular target: T21, PLK2 (Homo sapiens, UniProt Q9NYY3); settings: estimated, abridged dose response curve, read-out: Kinase inhibitory activity EC50
T21 construct: purchased Invitrogen, Inc. (SelectScreen service)
In short: as §1

PRKCN (PKD3, PRKD3) = molecular target: T22, PRKCN (PKD3, PRKD3) (Homo sapiens, UniProt O94806); settings: estimated, abridged dose response curve, read-out: Kinase inhibitory activity EC50
T22 construct: purchased Invitrogen, Inc. (SelectScreen platform)
In short: as §1

RET Y791F = molecular target: T23, RET Y791F (Homo sapiens, UniProt P07949, Y791F); settings: estimated, abridged dose response curve, read-out: Kinase inhibitory activity EC50
T23 construct: purchased Invitrogen (SelectScreen)
In short: as §1

ROCK1 = molecular target: T24, ROCK1 (Homo sapiens, UniProt Q13464); settings: estimated, abridged dose response curve, read-out: Kinase inhibitory activity EC50
T24 construct: purchased Invitrogen (SelectScreen platform)
In short: as §1

RPS6KA2 (RSK3) = molecular target: T25, RPS6KA2 (RSK3) (Homo sapiens, UniProt Q15349); settings: estimated, abridged dose response curve, read-out: Kinase inhibitory activity EC50
T25 construct: purchased Invitrogen, Inc. (SelectScreen platform)
In short: as §1

RPS6KA6 (RSK4) = molecular target: T26, RPS6KA6 (RSK4) (Homo sapiens, UniProt Q9UK32); settings: estimated, abridged dose response curve, read-out: Kinase inhibitory activity EC50
T26 construct: purchased Invitrogen, Inc. (SelectScreen platform)
In short: as §1

T20 sequence (P16234 24-1089): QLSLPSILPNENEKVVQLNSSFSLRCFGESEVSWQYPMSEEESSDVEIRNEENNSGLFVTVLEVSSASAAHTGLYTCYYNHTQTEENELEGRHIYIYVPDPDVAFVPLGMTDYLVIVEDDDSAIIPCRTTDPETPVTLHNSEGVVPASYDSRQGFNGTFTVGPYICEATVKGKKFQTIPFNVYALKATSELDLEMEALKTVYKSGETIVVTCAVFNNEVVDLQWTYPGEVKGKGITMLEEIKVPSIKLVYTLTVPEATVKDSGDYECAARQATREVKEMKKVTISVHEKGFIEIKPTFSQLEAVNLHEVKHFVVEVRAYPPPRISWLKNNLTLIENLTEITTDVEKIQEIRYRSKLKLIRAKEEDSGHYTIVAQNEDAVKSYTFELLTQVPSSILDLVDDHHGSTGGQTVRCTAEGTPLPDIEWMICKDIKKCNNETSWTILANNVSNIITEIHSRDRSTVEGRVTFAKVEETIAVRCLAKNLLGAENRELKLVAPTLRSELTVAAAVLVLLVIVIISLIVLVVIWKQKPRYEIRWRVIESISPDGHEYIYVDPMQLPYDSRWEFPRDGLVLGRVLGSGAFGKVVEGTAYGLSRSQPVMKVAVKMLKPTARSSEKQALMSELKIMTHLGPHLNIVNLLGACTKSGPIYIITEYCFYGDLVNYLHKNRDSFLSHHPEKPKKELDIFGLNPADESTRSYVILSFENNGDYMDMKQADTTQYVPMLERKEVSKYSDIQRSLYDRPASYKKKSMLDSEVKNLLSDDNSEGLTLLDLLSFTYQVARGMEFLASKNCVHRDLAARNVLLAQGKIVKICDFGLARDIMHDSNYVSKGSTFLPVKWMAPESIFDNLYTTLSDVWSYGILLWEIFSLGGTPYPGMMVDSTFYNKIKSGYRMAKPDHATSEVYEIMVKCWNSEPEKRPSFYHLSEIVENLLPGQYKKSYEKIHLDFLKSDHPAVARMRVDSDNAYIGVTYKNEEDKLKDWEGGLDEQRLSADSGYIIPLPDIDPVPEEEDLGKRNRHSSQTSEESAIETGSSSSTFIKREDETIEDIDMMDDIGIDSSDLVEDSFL
T10 sequence (P07948 1-491 isoform P07948-2): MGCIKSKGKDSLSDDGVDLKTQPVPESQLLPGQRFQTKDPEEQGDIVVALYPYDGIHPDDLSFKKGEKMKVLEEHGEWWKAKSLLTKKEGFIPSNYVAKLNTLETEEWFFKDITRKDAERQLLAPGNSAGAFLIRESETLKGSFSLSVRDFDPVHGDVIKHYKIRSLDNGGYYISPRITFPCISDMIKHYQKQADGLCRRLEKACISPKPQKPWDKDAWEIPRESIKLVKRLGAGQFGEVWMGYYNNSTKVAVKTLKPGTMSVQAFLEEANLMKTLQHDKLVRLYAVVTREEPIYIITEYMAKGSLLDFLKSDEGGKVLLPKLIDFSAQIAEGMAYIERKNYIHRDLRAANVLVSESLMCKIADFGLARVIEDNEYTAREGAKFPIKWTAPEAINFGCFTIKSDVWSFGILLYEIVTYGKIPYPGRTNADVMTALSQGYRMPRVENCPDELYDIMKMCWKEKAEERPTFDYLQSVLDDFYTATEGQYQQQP
T25 sequence (Q15349 whole entry): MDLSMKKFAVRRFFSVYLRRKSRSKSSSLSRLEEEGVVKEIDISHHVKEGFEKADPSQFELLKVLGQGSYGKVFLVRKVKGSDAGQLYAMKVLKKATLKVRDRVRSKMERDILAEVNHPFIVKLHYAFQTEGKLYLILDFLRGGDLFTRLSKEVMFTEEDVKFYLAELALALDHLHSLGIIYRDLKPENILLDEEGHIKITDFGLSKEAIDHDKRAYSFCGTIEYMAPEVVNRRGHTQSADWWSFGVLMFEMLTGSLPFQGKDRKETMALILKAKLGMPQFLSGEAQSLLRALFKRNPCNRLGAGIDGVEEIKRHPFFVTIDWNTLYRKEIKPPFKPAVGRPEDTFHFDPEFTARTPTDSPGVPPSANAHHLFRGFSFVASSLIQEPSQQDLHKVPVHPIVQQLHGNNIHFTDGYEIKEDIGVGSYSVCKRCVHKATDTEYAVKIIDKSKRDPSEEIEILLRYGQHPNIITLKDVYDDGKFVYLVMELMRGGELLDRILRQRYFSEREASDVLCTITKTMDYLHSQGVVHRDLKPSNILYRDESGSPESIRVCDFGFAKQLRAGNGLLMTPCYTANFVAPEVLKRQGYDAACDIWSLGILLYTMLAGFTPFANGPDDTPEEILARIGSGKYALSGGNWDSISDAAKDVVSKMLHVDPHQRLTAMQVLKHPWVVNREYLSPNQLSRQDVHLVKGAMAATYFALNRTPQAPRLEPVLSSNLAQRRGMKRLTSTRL
T21 sequence (Q9NYY3 whole entry): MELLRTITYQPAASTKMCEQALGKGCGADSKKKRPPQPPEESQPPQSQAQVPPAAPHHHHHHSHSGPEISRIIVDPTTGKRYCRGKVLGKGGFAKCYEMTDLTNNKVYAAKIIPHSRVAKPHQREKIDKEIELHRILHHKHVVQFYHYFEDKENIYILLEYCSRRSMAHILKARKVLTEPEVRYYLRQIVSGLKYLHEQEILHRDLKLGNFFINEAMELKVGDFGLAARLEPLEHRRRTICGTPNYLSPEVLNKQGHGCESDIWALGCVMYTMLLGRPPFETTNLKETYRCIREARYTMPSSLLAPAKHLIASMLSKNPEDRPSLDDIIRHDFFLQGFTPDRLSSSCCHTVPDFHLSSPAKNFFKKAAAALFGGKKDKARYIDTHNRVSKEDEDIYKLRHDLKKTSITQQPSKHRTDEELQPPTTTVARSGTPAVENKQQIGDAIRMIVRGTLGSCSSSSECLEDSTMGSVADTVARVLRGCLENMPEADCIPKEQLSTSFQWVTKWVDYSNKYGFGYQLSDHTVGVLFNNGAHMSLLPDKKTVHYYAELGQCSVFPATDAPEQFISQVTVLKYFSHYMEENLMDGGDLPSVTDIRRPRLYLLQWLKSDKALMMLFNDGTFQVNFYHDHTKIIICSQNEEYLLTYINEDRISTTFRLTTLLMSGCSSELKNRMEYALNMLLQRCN
T14 sequence (P28482 whole entry): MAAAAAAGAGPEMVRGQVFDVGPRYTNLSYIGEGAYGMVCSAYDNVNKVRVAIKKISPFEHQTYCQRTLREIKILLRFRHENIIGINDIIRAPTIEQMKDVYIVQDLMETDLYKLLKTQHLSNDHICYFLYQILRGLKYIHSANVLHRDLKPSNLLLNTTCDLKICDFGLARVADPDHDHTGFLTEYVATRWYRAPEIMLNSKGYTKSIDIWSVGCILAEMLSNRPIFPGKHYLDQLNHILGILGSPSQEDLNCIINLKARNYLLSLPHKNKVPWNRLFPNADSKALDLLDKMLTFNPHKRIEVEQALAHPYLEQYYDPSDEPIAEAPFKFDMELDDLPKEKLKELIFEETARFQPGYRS
T9 sequence (P23458 whole entry): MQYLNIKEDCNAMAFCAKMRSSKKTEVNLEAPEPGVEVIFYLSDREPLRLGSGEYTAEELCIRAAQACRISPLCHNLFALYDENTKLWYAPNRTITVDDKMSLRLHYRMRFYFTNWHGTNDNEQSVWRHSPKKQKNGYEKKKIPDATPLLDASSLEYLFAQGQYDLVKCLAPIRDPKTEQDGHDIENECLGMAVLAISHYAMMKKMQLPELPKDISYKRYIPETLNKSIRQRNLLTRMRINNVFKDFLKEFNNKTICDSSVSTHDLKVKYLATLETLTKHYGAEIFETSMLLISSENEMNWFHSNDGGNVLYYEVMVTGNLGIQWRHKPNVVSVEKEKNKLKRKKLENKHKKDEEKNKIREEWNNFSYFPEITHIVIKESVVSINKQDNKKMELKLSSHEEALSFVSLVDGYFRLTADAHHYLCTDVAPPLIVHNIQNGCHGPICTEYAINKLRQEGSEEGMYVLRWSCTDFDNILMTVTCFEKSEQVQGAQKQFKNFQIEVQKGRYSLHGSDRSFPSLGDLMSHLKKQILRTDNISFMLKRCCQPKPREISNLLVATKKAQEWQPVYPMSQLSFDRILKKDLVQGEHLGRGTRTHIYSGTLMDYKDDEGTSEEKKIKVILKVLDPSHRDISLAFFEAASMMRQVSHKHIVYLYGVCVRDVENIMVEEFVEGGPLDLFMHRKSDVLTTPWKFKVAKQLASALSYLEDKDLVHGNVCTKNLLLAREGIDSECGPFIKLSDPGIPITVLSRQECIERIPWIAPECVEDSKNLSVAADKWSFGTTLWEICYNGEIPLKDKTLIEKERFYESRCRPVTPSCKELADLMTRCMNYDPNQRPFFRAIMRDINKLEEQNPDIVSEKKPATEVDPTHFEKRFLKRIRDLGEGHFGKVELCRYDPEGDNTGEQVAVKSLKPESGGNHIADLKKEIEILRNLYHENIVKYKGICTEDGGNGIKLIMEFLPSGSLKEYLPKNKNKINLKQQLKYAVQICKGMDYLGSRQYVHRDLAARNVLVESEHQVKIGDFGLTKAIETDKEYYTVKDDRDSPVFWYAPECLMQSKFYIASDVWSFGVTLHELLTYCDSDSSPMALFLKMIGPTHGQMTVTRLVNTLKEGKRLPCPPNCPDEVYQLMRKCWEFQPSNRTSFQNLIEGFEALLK
T12 sequence (P41279 whole entry): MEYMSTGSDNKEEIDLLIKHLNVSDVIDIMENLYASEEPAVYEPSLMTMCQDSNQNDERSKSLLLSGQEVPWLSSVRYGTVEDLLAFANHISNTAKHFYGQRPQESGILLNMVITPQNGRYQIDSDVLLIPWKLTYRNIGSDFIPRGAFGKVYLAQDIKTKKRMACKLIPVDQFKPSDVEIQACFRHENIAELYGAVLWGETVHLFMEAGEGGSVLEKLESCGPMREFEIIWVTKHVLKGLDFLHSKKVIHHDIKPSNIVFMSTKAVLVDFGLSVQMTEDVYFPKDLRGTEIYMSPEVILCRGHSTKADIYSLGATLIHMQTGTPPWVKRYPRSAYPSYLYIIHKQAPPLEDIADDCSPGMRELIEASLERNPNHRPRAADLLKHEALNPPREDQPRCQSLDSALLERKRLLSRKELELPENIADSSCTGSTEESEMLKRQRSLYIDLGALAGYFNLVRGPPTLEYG

Row | SMILES | EC50 (AKT1 (PKB alpha)) [µM] | EC50 (AMPK A1/B1/G1) [µM] | EC50 (CSNK1G2 (CK1 gamma 2)) [µM] | EC50 (EPHA1) [µM] | EC50 (EPHA8) [µM] | EC50 (FGFR2) [µM] | EC50 (INSR) [µM] | EC50 (JAK1) [µM] | EC50 (LYN B) [µM] | EC50 (MAP2K6 (MKK6)) [µM] | EC50 (MAP3K8 (COT)) [µM] | EC50 (MAP4K2 (GCK)) [µM] | EC50 (MAPK1 (ERK2)) [µM] | EC50 (MAPK14 (p38 alpha)) [µM] | EC50 (MERTK (cMER)) [µM] | EC50 (MST1R (RON)) [µM] | EC50 (NEK6) [µM] | EC50 (PDGFRA (PDGFR alpha)) [µM] | EC50 (PLK2) [µM] | EC50 (PRKCN (PKD3, PRKD3)) [µM] | also measured
1 | CN(C)CCCNc1ccc2ncn3c4ccc5[nH]ncc5c4c(=O)c1c23 [Compound (IV)] | > 5 | > 5 | > 5 | > 5 | 4.15 | 2.86 | 2.4 | > 5 | 0.426 | > 5 | > 5 | > 5 | > 5 | 3.79 | > 5 | > 5 | > 5 | 0.562 | > 5 | 0.302 | EC50 (GRK7; GRK7, estimated, abridged dose response curve, read-out: Kinase inhibitory activity EC50): > 5 µM; EC50 (NTRK2 (TRKB); NTRK2 (TRKB), estimated, abridged dose response curve, read-out: Kinase inhibitory activity EC50): 0.78 µM; EC50 (RET Y791F): 0.627 µM; EC50 (ROCK1): 0.487 µM; EC50 (RPS6KA2 (RSK3)): 0.84 µM; EC50 (RPS6KA6 (RSK4)): 0.655 µM
2 | CCN(CC)CCNc1ccc2ncn3c4ccc(O)cc4c(=O)c1c23 [Symadex, 5-(2-(diethylamino)ethylamino)-8-hydroxy-6H-imidazo[4,5,1-de]acridin-6-one, reference compound] | > 5 | 3.48 | > 5 | > 5 | 3.35 | 4.5 | > 5 | > 5 | 0.812 | > 5 | 4.63 | 4.93 | > 5 | 2.97 | 3.6 | > 5 | > 5 | 1.23 | > 5 | 0.221 | EC50 (GRK7): > 5 µM; EC50 (NTRK2 (TRKB)): > 5 µM; EC50 (RET Y791F): 1.24 µM; EC50 (ROCK1): > 5 µM; EC50 (RPS6KA2 (RSK3)): 0.46 µM; EC50 (RPS6KA6 (RSK4)): 0.182 µM
